Our source for the IC50 values is US11028061B2, “Modulators of myocyte lipid accumulation and insulin resistance and methods of use thereof” (Sanford Burnham Prebys Medical Discovery Institute, priority 2015, dated 2021).

Each structure is given as a SMILES string. Read-outs that look alike come from different tables or passages of the source.

As usually defined, the IC50 is the concentration that gives 50% inhibition.

This test has as its system primary murine skeletal myocytes. In words: TAG accumulation in primary murine skeletal myocytes. It is filed as cell-based. The conditions noted are these: Mus musculus, read-out: Activity Score (IC50), triacylglyceride (TAG) accumulation.
Setting [1] is: primary murine skeletal myocytes.

As to `COc1ccc2nc(NC(=O)c3ccc(OCC(=O)N4CCOCC4)cc3)sc2c1` [Cpd. 88, N-(6-methoxybenzo[d]thiazol-2-yl)-4-(2-morpholino-2-oxoethoxy)benzamide], under setting [1], the IC50 lay in the range of 1000 to 10000 nM.
With `COc1ccc(-c2csc(NC(=O)c3ccc(NCC(=O)N(C)C)cc3)n2)c(Cl)c1` [compound 72, N-(4-(2-chloro-4-methoxyphenyl)thiazol-2-yl)-4-((2-(dimethylamino)-2-oxoethyl)amino)benzamide], the half-inhibitory concentration (IC50) under setting [1] is less than 1000 nM.
`COc1ccc(-c2csc(NC(=O)c3ccc(OCC(=O)N4CCSCC4)c(OC)c3)n2)cc1` [Cpd. 11, 3-methoxy-N-(4-(4-methoxyphenyl)thiazol-2-yl)-4-(2-oxo-2-thiomorpholinoethoxy)benzamide]: under setting [1], the IC50 was less than 1000 nM.
Take `COc1cc(C(=O)Nc2nc(-c3ccccc3)c(Cc3ccccc3)s2)ccc1OCC(=O)N1CCOCC1` [Cpd. 84, N-(5-benzyl-4-phenylthiazol-2-yl)-3-methoxy-4-(2-morpholino-2-oxoethoxy)benzamide]: the IC50 under setting [1] is less than 1000 nM.
As to `COc1cc(C(=O)Nc2nc(Cc3ccccc3)cs2)ccc1OCC(=O)N1CCOCC1` [Cpd. 85, N-(4-benzylthiazol-2-yl)-3-methoxy-4-(2-morpholino-2-oxoethoxy)benzamide], the IC50 under setting [1] is 1000 to 10000 nM.
The same measure, in the same setting: in the case of `Cc1cccc(-c2csc(NC(=O)c3ccc(OCC(=O)N4CCOCC4)cc3)n2)c1` [Cpd. 51, 4-(2-morpholino-2-oxoethoxy)-N-(4-(m-tolyl)thiazol-2-yl)benzamide] it was less than 1000 nM; in that of `COc1cc(C(=O)Nc2nc(-c3ccc(OC(F)(F)F)cc3)cs2)ccc1OCC(=O)N1CCOCC1` [Cpd. 26, 3-methoxy-4-(2-morpholino-2-oxoethoxy)-N-(4-(4-(trifluoromethoxy)phenyl)thiazol-2-yl)benzamide], less than 1000 nM.
For `CCNc1ccc(C(=O)Nc2nc(-c3ccc(OC)cc3)cs2)cc1OCCO` [Cpd. 99, 4-(ethylamino)-3-(2-hydroxyethoxy)-N-(4-(4-methoxyphenyl)thiazol-2-yl)benzamide], the IC50 was 1000 to 10000 nM.
Turning to `COc1ccc(-c2csc(NC(=O)C3CCC(OCC(=O)N4CCOCC4)CC3)n2)cc1` (centres unmarked) [Cpd. 97, N-(4-(4-methoxyphenyl)thiazol-2-yl)-4-(2-morpholino-2-oxoethoxy)cyclohexane-1-carboxamide], under setting [1], the half-inhibitory concentration (IC50) is more than 10000 nM.
As to `CNC(=O)COc1ccc(C(=O)Nc2nc(-c3ccc(OC)cc3Cl)cs2)cc1` [Cpd. 58, N-(4-(2-chloro-4-methoxyphenyl)thiazol-2-yl)-4-(2-(methylamino)-2-oxoethoxy)benzamide], the IC50 under setting [1] was less than 1000 nM.
With `COc1ccc(-c2csc(NC(=O)c3ccc(OCC(=O)N4CCOCC4)cn3)n2)cc1` [Cpd. 92, N-(4-(4-methoxyphenyl)thiazol-2-yl)-5-(2-morpholino-2-oxoethoxy)picolinamide], the IC50 under setting [1] is more than 10000 nM.
On to `COC(=O)CNC(=O)COc1ccc(C(=O)Nc2nc(-c3ccc(OC)cc3)cs2)cc1OC` [Cpd. 16, Methyl (2-(2-methoxy-4-((4-(4-methoxyphenyl)thiazol-2-yl)carbamoyl)phenoxy)acetyl)glycinate], for which the half-maximal inhibitory concentration (IC50) under setting [1] is more than 10000 nM.
The same measure, in the same setting: next, `O=C(Nc1nc(-c2ccccc2)cs1)c1cccc(OCC(=O)N2CCOCC2)c1` [Cpd. 95, 3-(2-morpholino-2-oxoethoxy)-N-(4-phenylthiazol-2-yl)benzamide]: 1000 to 10000 nM; `COc1ccc(-c2csc(NC(=O)c3ccc(OCC(=O)NCCN4CCCCC4)c(OC)c3)n2)cc1` [Cpd. 14, 3-methoxy-N-(4-(4-methoxyphenyl)thiazol-2-yl)-4-(2-oxo-2-((2-(piperidin-1-yl)ethyl)amino)ethoxy)benzamide]: 1000 to 10000 nM; `COc1cc(C(=O)Nc2nc(-c3ccc(O)cc3)cs2)ccc1OCC(=O)N1CCOCC1` [Cpd. 27, N-(4-(4-hydroxyphenyl)thiazol-2-yl)-3-methoxy-4-(2-morpholino-2-oxoethoxy)benzamide]: less than 1000 nM.
As to `CCc1ccc(-c2csc(NC(=O)c3ccc(OCC(=O)N4CCOCC4)cc3)n2)cc1` [Cpd. 44, N-(4-(4-ethylphenyl)thiazol-2-yl)-4-(2-morpholino-2-oxoethoxy)benzamide], the IC50 under setting [1] is less than 1000 nM.
As for `COc1ccc(-c2csc(NC(=O)c3ccc(N)c(OC)c3)n2)cc1` [compound 77, 4-amino-3-methoxy-N-(4-(4-methoxyphenyl)thiazol-2-yl)benzamide], under setting [1], the IC50 is 1000 to 10000 nM.
For `CCOc1ccc(-c2csc(NC(=O)c3ccc(OCC(=O)N4CCOCC4)c(OC)c3)n2)cc1` [Cpd. 28, N-(4-(4-ethoxyphenyl)thiazol-2-yl)-3-methoxy-4-(2-morpholino-2-oxoethoxy)benzamide], the IC50 under setting [1] is less than 1000 nM.
Same read-out and setting: next, `O=C(Nc1nc(-c2cccc(F)c2)cs1)c1ccc(OCC(=O)N2CCOCC2)cc1` [Cpd. 53, N-(4-(3-fluorophenyl)thiazol-2-yl)-4-(2-morpholino-2-oxoethoxy)benzamide]: less than 1000 nM.
In the case of `COc1ccc(-c2csc(NC(=O)c3ccc(OCC(=O)N4CCOCC4)c(OC)c3)n2)cc1OC` [Cpd. 38, N-(4-(3,4-dimethoxyphenyl)thiazol-2-yl)-3-methoxy-4-(2-morpholino-2-oxoethoxy)benzamide], the IC50 under setting [1] lay within 1000 to 10000 nM.
The same measure, in the same setting: next, `CC(C)c1ccc(-c2csc(NC(=O)c3ccc(OCC(=O)N4CCOCC4)cc3)n2)cc1` [Cpd. 45, N-(4-(4-isopropylphenyl)thiazol-2-yl)-4-(2-morpholino-2-oxoethoxy)benzamide]: less than 1000 nM; `COc1ccc(-c2csc(NC(=O)c3ccc(OCC(=O)N(C)C)c(OC)c3)n2)cc1` [Cpd. 19, 4-(2-(dimethylamino)-2-oxoethoxy)-3-methoxy-N-(4-(4-methoxyphenyl)thiazol-2-yl)benzamide]: 1000 to 10000 nM.
Same read-out and setting: in the case of `COc1cc(C(=O)Nc2ncc(Cc3cccc(C(F)(F)F)c3)s2)ccc1OCC(=O)N1CCOCC1` [Cpd. 100, 3-methoxy-4-(2-morpholino-2-oxoethoxy)-N-(5-(3-(trifluoromethyl)benzyl)thiazol-2-yl)benzamide] it was more than 10000 nM; in that of `COc1ccc(-c2csc(NC(=O)CCC(=O)N3CCOCC3)n2)cc1` [Cpd. 82, N-(4-(4-methoxyphenyl)thiazol-2-yl)-4-morpholino-4-oxobutanamide], 1000 to 10000 nM; in that of `COCCOc1ccc(-c2csc(NC(=O)c3ccc(OCC(=O)N4CCOCC4)cc3)n2)cc1` [Cpd. 43, N-(4-(4-(2-methoxyethoxy)phenyl)thiazol-2-yl)-4-(2-morpholino-2-oxoethoxy)benzamide], less than 1000 nM.
Turning to `O=C(Nc1nc(-c2ccc(OC(F)F)cc2)cs1)c1ccc(OCC(=O)N2CCOCC2)cc1` [Cpd. 40, N-(4-(4-(difluoromethoxy)phenyl)thiazol-2-yl)-4-(2-morpholino-2-oxoethoxy)benzamide], the 50% inhibitory concentration (IC50) under setting [1] was less than 1000 nM.
Still for that read-out and setting: next, `COc1cc(C(=O)Nc2ncc(-c3ccccc3)s2)ccc1OCC(=O)N1CCOCC1` [compound 79, 3-methoxy-4-(2-morpholino-2-oxoethoxy)-N-(5-phenylthiazol-2-yl)benzamide]: more than 10000 nM; `COc1cc(C(=O)Nc2nc(-c3ccc(Cl)cc3)cs2)ccc1O` [Cpd. 4, N-(4-(4-chlorophenyl)thiazol-2-yl)-4-hydroxy-3-methoxybenzamide]: 1000 to 10000 nM; `COc1cc(C(=O)Nc2cccc(-c3ccccc3)c2)ccc1OCC(=O)N1CCOCC1` [Cpd. 83, N-([1,1′-biphenyl]-3-yl)-3-methoxy-4-(2-morpholino-2-oxoethoxy)benzamide]: more than 10000 nM.
